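Where inhibition never reached the appropriate level, the endpoint shown equals the highest concentration tested. Otherwise, values were interpolated linearly from a five-concentration, 48-hour dose response in 96-well plates. The concentration for 50% growth inhibition is given as GI50.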 Activity calls are given as the source filed them. No stated cut-off is given here; in the data, active = GI50 up to about 1.1 µM and inactive = higher.
Legend:
Test in all cases: DTP human tumour cell line panel, 48 h
A498 = tested on: A498
HL-60 = tested on: HL-60
HT-29 = tested on: HT-29
IGROV-1 = tested on: IGROV-1
LOX IMVI = tested on: LOX IMVI
MCF7 = tested on: MCF7
NCI-H522 = tested on: NCI-H522
NCI/ADR-RES = tested on: NCI/ADR-RES
OVCAR-3 = tested on: OVCAR-3
OVCAR-8 = tested on: OVCAR-8
SF-295 = tested on: SF-295
SK-MEL-28 = tested on: SK-MEL-28
SK-MEL-2 = tested on: SK-MEL-2
SN12C = tested on: SN12C
SW-620 = tested on: SW-620
U-251 = tested on: U-251
UACC-257 = tested on: UACC-257
UACC-62 = tested on: UACC-62
UO-31 = tested on: UO-31

Row | Compound | GI50 (A498) | GI50 (HL-60) | GI50 (HT-29) | GI50 (IGROV-1) | GI50 (LOX IMVI) | GI50 (MCF7) | GI50 (NCI-H522) | GI50 (NCI/ADR-RES) | GI50 (OVCAR-3) | GI50 (OVCAR-8) | GI50 (SF-295) | GI50 (SK-MEL-28) | GI50 (SK-MEL-2) | GI50 (SN12C) | GI50 (SW-620) | GI50 (U-251) | GI50 (UACC-257) | GI50 (UACC-62) | GI50 (UO-31)
1 | COc1ccc2c(c1)c(=O)c1c(NCCNCCO)ccc3c(=O)n(CCN(C)C)c(=O)n2c31 | 0.116 µM (active) | > 100 µM (inactive) | 0.0352 µM (active) | 0.0279 µM (active) | 0.0198 µM (active) | < 0.0276 µM (active) | < 0.0182 µM (active) | 1.26 µM (inactive) | 0.331 µM (active) | 0.0604 µM (active) | 0.0861 µM (active) | 0.475 µM (active) | 0.243 µM (active) | < 0.0198 µM (active) | < 0.0236 µM (active) | < 0.0374 µM (active) | 0.261 µM (active) | 0.0662 µM (active) | 0.182 µM (active)
2 | C(=C\c1cccc(/C=C/c2ccccn2)n1)/c1ccccn1 | 0.971 µM (active) | 72.4 µM (inactive) | 56.8 µM (inactive) | 61.8 µM (inactive) | 66.4 µM (inactive) | 26.6 µM (inactive) | 13.4 µM (inactive) | 39.2 µM (inactive) | 79.3 µM (inactive) | 36.2 µM (inactive) | 66.2 µM (inactive) | 81.3 µM (inactive) | > 100 µM (inactive) | 60.7 µM (inactive) | 59.4 µM (inactive) | > 100 µM (inactive) | > 100 µM (inactive) | 27.1 µM (inactive) | 26.2 µM (inactive)
3 | COc1ccc(C2SC(=N)Nc3c2c(C)nn3C(=O)c2ccncc2)cc1 (centres undefined) | 98.4 µM (inactive) | 87.1 µM (inactive) | > 100 µM (inactive) | 89.5 µM (inactive) | > 100 µM (inactive) | 75.2 µM (inactive) | – | > 100 µM (inactive) | 40.4 µM (inactive) | > 100 µM (inactive) | > 100 µM (inactive) | > 100 µM (inactive) | > 100 µM (inactive) | > 100 µM (inactive) | > 100 µM (inactive) | > 100 µM (inactive) | > 100 µM (inactive) | > 100 µM (inactive) | > 100 µM (inactive)
4 | c1ccc2c(c1)c1c3n2-c2cc(on2)C3CCC1 (centres undefined) | > 100 µM (inactive) | > 100 µM (inactive) | > 100 µM (inactive) | > 100 µM (inactive) | > 100 µM (inactive) | > 100 µM (inactive) | > 100 µM (inactive) | > 100 µM (inactive) | > 100 µM (inactive) | > 100 µM (inactive) | > 100 µM (inactive) | > 100 µM (inactive) | > 100 µM (inactive) | > 100 µM (inactive) | > 100 µM (inactive) | > 100 µM (inactive) | > 100 µM (inactive) | > 100 µM (inactive) | > 100 µM (inactive)
5 | c1ccc(CC(Nc2cccnc2)c2ccccc2)cc1 (centres undefined) | 34 µM (inactive) | 23.9 µM (inactive) | 16.4 µM (inactive) | 31 µM (inactive) | 16.2 µM (inactive) | 28.9 µM (inactive) | 22.4 µM (inactive) | 21.9 µM (inactive) | 16.4 µM (inactive) | 28.2 µM (inactive) | 18.5 µM (inactive) | 31 µM (inactive) | 18.4 µM (inactive) | 20.6 µM (inactive) | 33 µM (inactive) | 19.5 µM (inactive) | 22 µM (inactive) | 16.6 µM (inactive) | 19.7 µM (inactive)
6 | O=c1c(Cc2cccc(Cc3c(O)oc4ccccc4c3=O)c2)c(O)oc2ccccc12 | > 100 µM (inactive) | > 100 µM (inactive) | > 100 µM (inactive) | > 100 µM (inactive) | > 100 µM (inactive) | 62.4 µM (inactive) | > 100 µM (inactive) | > 100 µM (inactive) | > 100 µM (inactive) | > 100 µM (inactive) | > 100 µM (inactive) | > 100 µM (inactive) | > 100 µM (inactive) | > 100 µM (inactive) | > 100 µM (inactive) | > 100 µM (inactive) | > 100 µM (inactive) | > 100 µM (inactive) | > 100 µM (inactive)
7 | COC(=O)[C@H](Cc1c[nH]c2ccccc12)NC(=O)c1ccccc1I | 18.5 µM (inactive) | 24.9 µM (inactive) | 23.7 µM (inactive) | 31.8 µM (inactive) | 19.7 µM (inactive) | 37.8 µM (inactive) | 15.6 µM (inactive) | 32.1 µM (inactive) | 13.6 µM (inactive) | 31.7 µM (inactive) | 42.4 µM (inactive) | 89.3 µM (inactive) | 19.9 µM (inactive) | > 100 µM (inactive) | 31.5 µM (inactive) | 31 µM (inactive) | 18.8 µM (inactive) | 18.2 µM (inactive) | 19.3 µM (inactive)
8 | COc1ccc(C=O)cc1Oc1ccc(C[C@H]2c3c(cc(OC)c4c3Oc3cc5c(cc3O4)CCN(C)C5=O)CCN2C)cc1 | 20.1 µM (inactive) | 8.85 µM (inactive) | 7.52 µM (inactive) | 7.16 µM (inactive) | 9.29 µM (inactive) | 7.66 µM (inactive) | 9.44 µM (inactive) | 8.07 µM (inactive) | 8.43 µM (inactive) | 7.87 µM (inactive) | 7.41 µM (inactive) | 10.6 µM (inactive) | 11.5 µM (inactive) | 12.9 µM (inactive) | 12.1 µM (inactive) | 9.51 µM (inactive) | 8.04 µM (inactive) | – | 7.93 µM (inactive)
9 | O=C(/N=C1/NCC(CN2CCN(c3ccccc3)CC2)O1)Nc1ccccc1 (centres undefined) | > 100 µM (inactive) | > 100 µM (inactive) | 63.8 µM (inactive) | > 100 µM (inactive) | > 100 µM (inactive) | > 100 µM (inactive) | > 100 µM (inactive) | > 100 µM (inactive) | – | – | > 100 µM (inactive) | > 100 µM (inactive) | > 100 µM (inactive) | > 100 µM (inactive) | > 100 µM (inactive) | > 100 µM (inactive) | > 100 µM (inactive) | > 100 µM (inactive) | > 100 µM (inactive)
10 | COc1cc2c3c(c1O)C1(C=CC(=O)C=C1)CC3N(C)CC2 (centres undefined) [GLAZIOVINE] | 17.7 µM (inactive) | 2.79 µM (inactive) | 8.95 µM (inactive) | 6.22 µM (inactive) | 2.77 µM (inactive) | 5.14 µM (inactive) | 1.93 µM (inactive) | 2.72 µM (inactive) | 5.37 µM (inactive) | 10.4 µM (inactive) | 12 µM (inactive) | 13.2 µM (inactive) | 10.7 µM (inactive) | 9.18 µM (inactive) | 5.89 µM (inactive) | 4.26 µM (inactive) | 13.4 µM (inactive) | 11.1 µM (inactive) | –
11 | CCOc1ccc2c(c1)c(=O)c1c(NCCN(CC)CC)ccc3nnn2c31 | > 100 µM (inactive) | – | 12.6 µM (inactive) | 9.64 µM (inactive) | 11.4 µM (inactive) | 12.3 µM (inactive) | 7.6 µM (inactive) | 12.3 µM (inactive) | > 100 µM (inactive) | 7.05 µM (inactive) | > 35.6 µM (inactive) | > 40.4 µM (inactive) | > 100 µM (inactive) | 9.82 µM (inactive) | 12.6 µM (inactive) | 19.7 µM (inactive) | > 41.6 µM (inactive) | > 100 µM (inactive) | 3.4 µM (inactive)
12 | c1ccc2sc(SSSc3nc4ccccc4s3)nc2c1 | > 100 µM (inactive) | 49.2 µM (inactive) | 35.7 µM (inactive) | > 100 µM (inactive) | 19.1 µM (inactive) | 44.1 µM (inactive) | 23 µM (inactive) | > 100 µM (inactive) | – | 55.6 µM (inactive) | > 100 µM (inactive) | > 100 µM (inactive) | > 100 µM (inactive) | > 100 µM (inactive) | > 100 µM (inactive) | > 100 µM (inactive) | 49.8 µM (inactive) | > 100 µM (inactive) | > 100 µM (inactive)
13 | COc1cc2c(cc1OC)C1c3ccccc3CCN1CC2 (centres undefined) | > 100 µM (inactive) | 30.4 µM (inactive) | 28.5 µM (inactive) | 53.3 µM (inactive) | 48.6 µM (inactive) | > 100 µM (inactive) | > 100 µM (inactive) | 95.7 µM (inactive) | > 100 µM (inactive) | > 100 µM (inactive) | 82.6 µM (inactive) | 79.3 µM (inactive) | > 100 µM (inactive) | 62.5 µM (inactive) | 63.2 µM (inactive) | 95.3 µM (inactive) | > 100 µM (inactive) | 58.1 µM (inactive) | –
14 | O=C(NC(Cc1c[nH]cn1)C(=O)N1CCCC1)C1CCCC1 (centres undefined) | 37.9 µM (inactive) | > 100 µM (inactive) | > 100 µM (inactive) | > 100 µM (inactive) | > 100 µM (inactive) | > 100 µM (inactive) | > 100 µM (inactive) | > 100 µM (inactive) | > 100 µM (inactive) | > 100 µM (inactive) | > 100 µM (inactive) | > 100 µM (inactive) | – | > 100 µM (inactive) | > 100 µM (inactive) | > 100 µM (inactive) | – | > 100 µM (inactive) | > 100 µM (inactive)
15 | Cn1ncc2c(NCCc3ccccc3)nc(Cl)nc21 | 17.7 µM (inactive) | – | 14.7 µM (inactive) | 33.1 µM (inactive) | 16.7 µM (inactive) | 30 µM (inactive) | 21.9 µM (inactive) | 16.4 µM (inactive) | 33.3 µM (inactive) | 27.2 µM (inactive) | 16.4 µM (inactive) | 28.7 µM (inactive) | 10.7 µM (inactive) | 44.6 µM (inactive) | 23.3 µM (inactive) | 30.2 µM (inactive) | 2.48 µM (inactive) | 5.97 µM (inactive) | 19 µM (inactive)

Reference: ChEMBL document CHEMBL1201862, “PubChem BioAssay data set” (2004)
